The values below come from patent US10246425B2, “3,5-diamino-6-chloro-N-(N-(4-phenylbutyl)carbamimidoyl) pyrazine-2-carboxamide compounds” (Parion Sciences, Inc., priority 2012, dated 2019).

A short description of data set [1]: Plasma potassium in sheep of the MCC study (marker for hyperkalemia). On the procedure: The animal model that has been used most often to measure changes in MCC is the sheep model. The effect of compounds for enhancing mucociliary clearance (MCC) can be measured using an in vivo model described by Sabater et al., Journal of Applied Physiology, 1999, pp. 2191-2196, incorporated herein by reference. In these studies, adult sheep were restrained and nasally intubated with an endotracheal tube. Aerosolized test articles were administered over 10-15 minutes to sheep. Radiolabeled ^99mTc-sulfur colloid (TSC, 3.1 mg/mL; containing approximately 20 mCi) was then administered at a specified time four or eight hours after test article. The radiolabeled aerosol was administered through the endotracheal tube for about 5 minutes. The sheep were then extubated, and total radioactive counts in the lung were measured every 5 minutes for a 1-hour observation period. The rate of radiolabel clearance from the lung is representative of the MCC rate in the animal. The advantage of this system is that it closely simulates the human lung environment. The model also allows for the collection of simultaneous PK/PD information through plasma and urine sampling over the test period. There are also several techniques to measure the drug concentrations on the airway surface during the MCC measurements. These include the collection of exhaled breath condensates or a filter paper method to obtain ASL via bronchoscopy.
The ovine model described above was used to evaluate the in vivo effects (efficacy/durability) of aerosol-delivered Compound II-d on MCC. Treatments consisting of either 4 mL of Compound II-d, Comparative Example 1, (S)-3,5-diamino-6-chloro-N—(N-(4-(4-(2,3-diamino-3-oxopropoxy)phenyl)butyl)carbamimidoyl)pyrazine-2-carboxamide, vehicle (sterile distilled H2O), or test agent in combination with HS were tested. To determine if combining HS with Compound II-d MCC, HS was administered immediately following Compound II-d administration. […] Radioactive counts were measured in a central region in the right lung at 5 min intervals for one hour with a gamma camera. […]

Data set [2] concerns human bronchial epithelial (HBE) cells. Description: Airway surface liquid drug (ASL) clearance and metabolism by human airway epithelium. Particulars: for % of Apical Mass as Metabolites (2 h) / % on Basolateral Side as Metabolites (2 h) / % of Initial Apical Mass on Basolateral Side (2 h): 25 μL of 25 μM apical. The class given is in vitro ADME. On the procedure: Assay 3. Airway Surface Liquid Drug (ASL) Clearance and Metabolism by Human Airway Epithelium
The disappearance of Compound II-d from the apical surface and airway epithelial metabolism were assessed in human bronchial epithelial (HBE) cells (Table 3). In these experiments 25 μL of a 25 μM solution of ENaC blocker was added to the apical surface of HBE cells grown at an air/liquid interface, and the drug concentration in the apical and basolateral compartment was measured over 2 h by UPLC.
Therefore, the compounds of Formula (A) have a longer half-life on mucosal surfaces compared to these know compounds as evidenced by the data shown in Table 4. The disappearance of Compound II-d from the apical surface and airway epithelial metabolism were assessed in HBE and compared to Comparative Example 1 (Table 4). In these experiments 25 μL of a 25 μM solution of ENaC blocker was added to the apical surface of HBE cells grown at an air/liquid interface, and the drug concentration in the apical and basolateral compartment was measured over 2 h by UPLC.

The next data set deals with sheep. Nature of the data set: Mucociliary clearance (MCC) studies in sheep. The data set is classed as in vivo. An excerpt: Assay 2. Mucociliary Clearance (MCC) Studies in Sheep
A further data set concerns Primary CBE cells. Nature of the data set: Airway hydration and sodium channel block (in vitro model): surface liquid retention. Particulars: for surface liquid retained on apical surface (% initial volume): 50 μl buffer, 10 μM. The class given is cell-based, canine. The procedure:
Assay 4. Airway Hydration and Sodium Channel Block (In Vitro Model)
Primary CBE cells are plated onto collagen-coated, porous membranes maintained at an air-liquid interface to assess maintenance of surface liquid volume over time. At the start of the experiment, each 12 mm snapwell insert was removed from the plate containing air-liquid interface culture media, blotted dry, weighed, and 50 μL of vehicle (0.1% DMSO), or ENaC blocker (10 μM in 0.1% DMSO) applied to the apical surface and the mass was recorded. The inserts were immediately returned to a transwell plate (500 μL, Krebs Ringer Bicarbonate (KRB), pH 7.4 in lower chamber) and placed in a 37° C., 5% CO2 incubator. To reduce artifact due to an apical carbohydrate osmotic gradient upon water loss, glucose was not included in the apical buffer. Compound (1a) was tested and compared to vehicle, and the mass of ASL was monitored serially from 0-8 or 24 h. The mass of surface liquid was converted to volume in μL. Data are reported as % initial volume (100%=50 μL).
The duration of sodium transport inhibition was determined indirectly by measuring the buffer retained after a 50 μl volume of experimental buffer was added to the apical surface of CBE cells.

Where [3] appears, read: HBE cells, 2 h incubation on the apical surface (37° C.), UPLC.
Setting [4] is: Table 4: HBE cells, 2 h, mean ± SD.
The mark [5] stands for this setting: Table 5: sheep MCC 4 h post-dose, 0.024 nmol/kg (300 nM).
The mark [6] stands for this setting: sheep MCC 4 h post-dose, 0.024 nmol/kg (300 nM) aerosol, mean ± SD (n).
[7] abbreviates: sheep MCC 4 h post-dose, 0.24 nmol/kg (3 μM) aerosol, mean ± SD (n).
[8] abbreviates: Table 4: HBE cells, 2 h, parent only.
The mark [9] stands for this setting: Table 5: sheep MCC 4 h post-dose, 24 nmol/kg (300 μM).
Setting [10] is: Table 5: sheep MCC 4 h post-dose, 240 nmol/kg (3 mM).

In the case of `N=C(NCCCCc1ccc(CC[C@H](NCCCN(C[C@H](O)[C@@H](O)[C@H](O)[C@H](O)CO)C[C@H](O)[C@@H](O)[C@H](O)[C@H](O)CO)C(N)=O)cc1)NC(=O)c1nc(Cl)c(N)nc1N` [II-d, 3,5-diamino-N—(N-(4-(4-((S)-4-amino-3-(3-(bis((2S,3R,4R,5R)-2,3,4,5,6-pentahydroxyhexyl)amino)propylamino)-4-oxobutyl)phenyl)butyl)carbamimidoyl)-6-chloropyrazine-2-carboxamide], in data set [1], the “Therapeutic Index, times greater renal safety than Comparative Example 1” value is 10,000-100,000 and the “Top Dose in Sheep with no Elevation of Plasma Potassium” value is 300 µM. Further, in data set [2] (setting [3]), the “compound detectable on the basolateral side” value is “no Compound II-d was detectable on the basolateral side” and the “metabolites on the apical or basolateral sides” value is “no metabolites were detected”. Further, in data set [2] (Table 3: HBE cells, 2 h), the “% of Apical Mass as Metabolites (2 h)” value is listed as “None” and the “% on Basolateral Side as Metabolites (2 h)” value (from here on “% on Basolateral Side”) is “None”. Besides, the “% of Initial Apical Mass on Basolateral Side (2 h)” value in data set [2] (Table 3: HBE cells, 2 h, mean ± SD) was 1.6 ± 0.15%. For the same compound, in data set [2] (setting [4]), the “% of Apical Mass as Metabolites (2 h)” value was “None”, the “% of Initial Apical Mass on Basolateral Side (2 h)” value is listed as 1.6 ± 0.15% and the “% on Basolateral Side” value is on record as “None”. In the data set on sheep (setting [5]), the “AUC (% CI × h)” value is reported as 11.5 ± 0.9 (4) % CI × h and the “Initial Slope (4.0-4.5 h)” value is listed as 26.5 ± 1.4 (4). In addition, the “MCC Highest Submaximal Dose” value in the data set on sheep (sheep) turned out to be 0.0003 mM. In addition, the “potency in sheep MCC relative to Comparative Example 1 (fold lower dose / times more potent)” value in the data set on sheep (sheep MCC 4 hours post-dose) is reported as 10,000. Besides, in the data set with sheep (setting [6]), the “AUC (% CI - h)” value was 11.5 ± 0.9 (4) % CI - h and the “Initial Slope (4.0-4.5 h)” value is 26.5 ± 1.4 (4). In addition, in the data set with sheep (setting [7]), the “AUC (% CI - h)” value is 19.8 ± 1.4 (4) % CI - h and the “Initial Slope (4.0-4.5 h)” value is 41.9 ± 3.7 (4). Besides, the ED50 dose result in the data set on sheep (sheep MCC four hour post-dosing) was “approximately 0.024 nmo/kg”. Also, the “percentage mucus clearance over time (FIG. 6)” value in the data set on sheep (sheep MCC, clinically relevant dose range) was “maximal effect”. Further, the “MCC effect at the top of the dose response curve” value in the data set on sheep (sheep, 0.24 nmol/kg dose) was “maximum (100%) MCC effect”. In addition, the “effect on MCC compared to vehicle control” value in the data set on sheep (sheep, four hour post-dosing, all doses tested (0.024, 0.24 and 2.4 nmol/kg)) was “enhanced MCC compared to vehicle control”. The “surface liquid retained on apical surface (% initial volume)” value in the data set with Primary CBE cells (8 hours) worked out at 112±11%. Moreover, in the data set with Primary CBE cells (24 hours), the “surface liquid retained on apical surface (% initial volume)” value came to 70.6±8.0% and the “loss of surface liquid relative to the 8-hour measure” value worked out at 16%.
`N=C(NCCCCc1ccc(OC[C@H](N)C(N)=O)cc1)NC(=O)c1nc(Cl)c(N)nc1N` [Comparative Example 1, (S)-3,5-diamino-6-chloro-N—(N-(4-(4-(2,3-diamino-3-oxopropoxy)phenyl)butyl)carbamimidoyl)pyrazine-2-carboxamide, reference compound]: in data set [1], the “Top Dose in Sheep with no Elevation of Plasma Potassium” value came to 300 µM. The “elimination from the apical side” value in data set [2] (HBE cells, 2 h) is recorded as “most of Comparative Example 1 was eliminated from the apical side”. Also, the “metabolized to the less active carboxylic acid” value in data set [2] (HBE cells, 2 h, apical side) is recorded as 83%. In addition, in data set [2] (setting [4]), the “% of Apical Mass as Metabolites (2 h)” value is 83.0 ± 3.5%, the “% of Initial Apical Mass on Basolateral Side (2 h)” value is listed as 8.3 ± 0.2^ % and the “% on Basolateral Side” value came out at 94.7 ± 1.0%. In addition, in data set [2] (setting [8]), the “% of Initial Apical Mass on Basolateral Side as Parent (2 h)” value is given as “(1% Parent)” and the “% of Initial Drug Mass on Apical Side as Parent (2 h)” value is reported as “(8% Parent)”. Besides, the ED50 in the data set on sheep (Ovis aries, sheep MCC 4 h post-dose, slope, AUC and Maximum Clearance, read-out: ED50 in the sheep MCC model) was around 0.24 µmol/kg. In the data set on sheep (setting [9]), the “AUC (% CI × h)” value is given as 6.9 ± 1.0 (3) % CI × h and the “Initial Slope (4.0-4.5 h)” value is given as 14.5 ± 1.3 (3). For the same compound, in the data set with sheep (setting [10]), the “AUC (% CI × h)” value is given as 14.1 ± 2.2 (6) % CI × h and the “Initial Slope (4.0-4.5 h)” value is given as 32.2 ± 7.3 (6). Besides, the “MCC Highest Submaximal Dose” value with sheep (sheep) was 3 mM. Further, the “ED50 in the sheep MCC model (concentration of dosing solution)” value with sheep (sheep MCC 4 h post-dose) is around 3000 µM.
Consider `N=C(N)NC(=O)c1nc(Cl)c(N)nc1N` [Amiloride, amiloride, reference compound], for which the “surface liquid retained on apical surface (% initial volume)” value with Primary CBE cells (8 hours) amounted to 25±19.2%.

In general, ED50 refers to the dose that gives a 50% effect, or the effect in half of the subjects.
